Results from EPA's ToxRefDB 2.

Columns and labels:
[1] = tested on: rat; conditions: Subchronic oral toxicity in rodents, sprague dawley, Gavage/Intubation, dose end: 90 day, group: systemic
[2] = tested on: rabbit; conditions: Subchronic dermal toxicity, new zealand white, Topical, dose end: 90 day, group: systemic, systemic / in life observation / clinical signs / erythema
[3] = tested on: rat; conditions: Neurotoxicity screening battery; sprague dawley; Oral; Gavage/Intubation; dose end: 13 week; group: cannot be grouped; systemic / in life observation / body weight / body weight gain + systemic / in life observation / clinical signs / red or crusty deposits …
[4] = tested on: dog; conditions: Sub-acute repeat dose toxicity; beagle; Oral; Gavage/Intubation; dose end: 28 day; group: systemic; systemic / clinical chemistry / alanine aminotransferase (alt/sgpt) / alanine aminotransferase (alt/sgpt) + systemic / clinical chemistry / …
[5] = tested on: rat; conditions: Sub-acute repeat dose toxicity; sprague dawley; Oral; Gavage/Intubation; dose end: 28 day; group: systemic; systemic / clinical chemistry / alanine aminotransferase (alt/sgpt) / alanine aminotransferase (alt/sgpt) + systemic / clinical chemistry / …
[6] = tested on: rat; conditions: Other (NonGuideline or Guideline Not Listed); wistar; Injection; Intravenous; dose end: 3 day; group: cannot be grouped; systemic / clinical chemistry / cholesterol / cholesterol + systemic / clinical chemistry / creatinine / creatinine + systemic / clinical …
[7] = tested on: mouse; conditions: Other (NonGuideline or Guideline Not Listed); cd1; Injection; Intravenous; dose end: 7 day; group: cannot be grouped; systemic / clinical chemistry / alanine aminotransferase (alt/sgpt) / alanine aminotransferase (alt/sgpt) + systemic / clinical chemistry / …
[8] = tested on: rat; conditions: Sub-acute repeat dose toxicity; sprague dawley; Injection; Intravenous; dose end: 13 day; group: systemic; systemic / clinical chemistry / alanine aminotransferase (alt/sgpt) / alanine aminotransferase (alt/sgpt) + systemic / clinical chemistry / …
[9] = tested on: rat; conditions: Other (NonGuideline or Guideline Not Listed); sprague dawley; Injection; Intravenous; dose end: 3 day; group: cannot be grouped; systemic / clinical chemistry / chloride / chloride + systemic / clinical chemistry / creatinine / creatinine + systemic / clinical …
[10] = tested on: rat; conditions: Multigenerational reproductive toxicity study, sprague dawley, Oral, Feed, dose end: 2 generation
[11] = tested on: rat; conditions: Subchronic oral toxicity in rodents, sprague dawley, Feed, dose end: 13 week, group: systemic
[12] = tested on: rat; conditions: Combined chronic toxicity/carcinogenicity, other, Oral, Feed, dose end: 24 month, group: systemic
[13] = tested on: mouse; conditions: Carcinogenicity, cd1, Oral, Feed, dose end: 78 week, group: systemic
[14] = tested on: dog; conditions: Chronic toxicity, beagle, Oral, Feed, dose end: 12 month, group: systemic
[15] = systemic / organ weight / liver / relative to body weight
[16] = group: offspring, systemic / in life observation / body weight / offspring (pup) weight
[17] = group: parental, systemic / in life observation / body weight / body weight
[18] = systemic / organ weight / liver / absolute
[19] = systemic / organ weight / liver / absolute + systemic / organ weight / liver / relative to body weight + systemic / pathology microscopic / …
[20] = systemic / pathology microscopic / kidney / mineralization
[21] = systemic / pathology microscopic / liver / pigmentation
[22] = systemic / pathology microscopic / liver / pigmentation + systemic / pathology microscopic / liver / hypertrophy

CN(C)C(=S)[S-].[Na+] [Sodium dimethyldithiocarbamate]
LOAEL ([1]; systemic / clinical chemistry / alkaline phosphatase (alp/alk) / alkaline phosphatase (alp/alk) + systemic / clinical chemistry / glucose / …): 250 mg/kg/day
LEL [1, 15]: 0.5 mg/kg/day
NEL [1, 15]: < 0.5 mg/kg/day
NOAEL ([1]; systemic / organ weight / liver / relative to body weight + systemic / clinical chemistry / alkaline phosphatase (alp/alk) / alkaline …): 5 mg/kg/day
LEL [2]: 50 mg/kg/day
LOAEL [2]: 50 mg/kg/day
NEL [2]: < 50 mg/kg/day
NOAEL [2]: < 50 mg/kg/day
LEL [3]: 250 mg/kg/day
LOAEL [3]: 250 mg/kg/day
NEL [3]: 5 mg/kg/day
NOAEL [3]: 5 mg/kg/day

CNS(=O)(=O)c1cc(C(=O)N2CCC(CCN3C4CCC3CC(n3c(C)nc5ccccc53)C4)(c3cccc(F)c3)CC2)c(Cl)cc1F (stereo not drawn)
LEL [4]: 250 mg/kg/day
LOAEL [4]: > 750 mg/kg/day
NEL [4]: < 250 mg/kg/day
NOAEL [4]: ≥ 750 mg/kg/day
LEL [5]: 500 mg/kg/day
LOAEL [5]: > 2000 mg/kg/day
NEL [5]: < 500 mg/kg/day
NOAEL [5]: ≥ 2000 mg/kg/day

C[C@@H](O)[C@H]1C(=O)N2C(C(=O)[O-])=C(CN3c4cccc5c(CC[N+]67CC[N+](CC(N)=O)(CC6)CC7)ccc(c45)S3(=O)=O)[C@H](C)[C@H]12.[Cl-]
LEL [6]: 150 mg/kg/day
LOAEL [6]: > 225 mg/kg/day
NEL [6]: 75 mg/kg/day
NOAEL [6]: ≥ 225 mg/kg/day
LEL [7]: 400 mg/kg/day
LOAEL [7]: > 800 mg/kg/day
NEL [7]: 200 mg/kg/day
NOAEL [7]: ≥ 800 mg/kg/day
LEL [8]: 150 mg/kg/day
LOAEL [8]: > 225 mg/kg/day
NEL [8]: 75 mg/kg/day
NOAEL [8]: ≥ 225 mg/kg/day
LEL [9]: 150 mg/kg/day
LOAEL [9]: > 150 mg/kg/day
NEL [9]: < 150 mg/kg/day
NOAEL [9]: ≥ 150 mg/kg/day

CCCCC(CC)CN1C(=O)C2C3C=CC(C3)C2C1=O (stereo not drawn) [MGK-264]
LEL [10, 16]: 61 mg/kg/day
LOAEL [10, 16]: 61 mg/kg/day
NEL [10, 16]: < 61 mg/kg/day
NOAEL [10, 16]: < 61 mg/kg/day
LEL [10, 17]: 61 mg/kg/day
NEL [10, 17]: < 61 mg/kg/day
LOAEL ([11]; systemic / organ weight / liver / absolute + systemic / organ weight / liver / relative to body weight): 260 mg/kg/day
NOAEL ([11]; systemic / organ weight / liver / absolute + systemic / organ weight / liver / relative to body weight + systemic / clinical chemistry / …): 130 mg/kg/day
LEL [11, 15]: 140 mg/kg/day
NEL [11, 15]: < 140 mg/kg/day
LEL [12, 18]: 50 mg/kg/day
NEL [12, 18]: < 50 mg/kg/day
NOAEL ([12]; systemic / pathology microscopic / liver / hypertrophy + systemic / pathology microscopic / liver / proliferation + systemic / in life …): 50 mg/kg/day
LOAEL ([12]; systemic / pathology microscopic / liver / hypertrophy + systemic / pathology microscopic / liver / proliferation + systemic / organ weight…): 150 mg/kg/day
LOAEL [13, 19]: 396 mg/kg/day
NOAEL [13, 19]: 49.5 mg/kg/day
LEL [13, 20]: 49.5 mg/kg/day
NEL [13, 20]: < 49.5 mg/kg/day
NEL [14, 21]: 7.5 mg/kg/day
NOAEL [14, 21]: 7.5 mg/kg/day
LEL [14, 22]: 33.7 mg/kg/day
LOAEL [14, 22]: 33.7 mg/kg/day
